Source: patent US12410133B2, “Crystalline (r)-5-carbamoylpyridin-3-yl-2-methyl-4-(3-(trifluoromethoxy)benzyl)piperazine-1-carboxylate, compositions and methods of use thereof” (Celgene Corporation, priority 2018, dated 2025)
≈ marks a conversion by molar mass, not a printed value. Marks after values point to notes of the source that are not given here.

Legend:
[1] = Solubility of Form A in physiologically relevant media (37° C.); assay type: physicochemical
[2] = Form A solubility study in FaSSIF-v2 and FeSSIF-v2 at 37° C.; assay type: physicochemical; conditions: for solubility at 2 h / solubility at 24 h / Final Form: 37° C.; for Final Form: residual solid by XRPD
Procedure: Solubility was evaluated at 2 hr and 24 hr for Form A in FaSSIF-v2 and FeSSIF-v2 at 37° C. Approximately 40 mg of Form A sample was added in 2.0 mL of corresponding bio-medium to form a suspension, followed by shaking at 500 rpm at 37° C. After 2 hr and 24 hr, the supernatants were isolated by centrifugation (7000 rpm for 5 min) followed by filtration through […] PTFE membrane and were tested by HPLC concentration and pH. The residual solids were characterized by XRPD.

[3] = Accelerated solid-state stability study of Form A; assay type: physicochemical
Procedure: Solid-state stability evaluation (accelerated conditions) was performed on Form A under conditions of 25° C./60% RH and 40° C./75% RH. The detailed procedure utilized for stability evaluation is listed below:
1) weigh approximately 30 mg of Form A sample into each 3-mL vial;
2) cover the vial with Parafilm® and poke 15 holes on the Parafilm® with a needle;
3) put the vial in a stability chamber of 25° C./60% RH or 40° C./75% RH; and
4) sample for XRPD, TGA, DSC, HPLC purity and assay tests after 2, 4 and 6 weeks and 3 months.

[4] = Dynamic vapor sorption (DVS) of Form A; assay type: physicochemical
Procedure: Dynamic vapor sorption (DVS) was performed on a Surface Measurement Systems DVS Intrinsic. The relative humidity at 25° C. were calibrated against deliquescence point of LiCl, Mg(NO3)2, and KCl. Sample sizes were between 10-20 mg. Gas and flow rate was nitrogen, 200 mL/min; dm/dt: 0.002%/min.

[5] = Competitive slurry study of forms A to E in water; assay type: physicochemical; conditions: room temperature, 7 days
Procedure: A competitive slurry study of all known forms A to E was performed in water at room temperature to understand the thermodynamic stability relationship among these forms. Form A was used to saturate the water before it was filtered to obtain a near-saturated solution. Equal amounts of each form (A to E) were weighed and then mixed with the prepared near-saturated solution to form a new suspension, which was stirred magnetically (˜1000 rpm) at room temperature for 7 days.

[6] = physchem; conditions: thermodynamic from solid

## C[C@@H]1CN(Cc2cccc(OC(F)(F)F)c2)CCN1C(=O)Oc1cncc(C(N)=O)c1 [Form A, (R)-5-carbamoylpyridin-3-yl-2-methyl-4-(3-(trifluoromethoxy)benzyl)piperazine-1-carboxylate]
[1]; HCl/NaCl buffer pH 1.0, simulated gastric fluid, thermodynamic from solid, pH 1.0 HCl/NaCl buffer, final measured pH 1.47
  solubility: > 20000 µg/mL
[1]; acetate buffer pH 4, aqueous buffer, thermodynamic from solid, pH 4 Acetate buffer, final measured pH 4.18
  solubility: 696 µg/mL (≈ 1590 µM)
[1]; acetate buffer pH 5, aqueous buffer, thermodynamic from solid, pH 5 Acetate buffer, final measured pH 5.14
  solubility: 91 µg/mL (≈ 208 µM)
[1]; aqueous buffer, thermodynamic from solid, pH 4 (0.0001N HCl), final measured pH 7.78
  solubility: 11 µg/mL (≈ 25.1 µM)
[1]; pH 4.9, aqueous buffer, thermodynamic from solid, pH 3 (0.001N HCl), final measured pH 4.90
  solubility: 57 µg/mL (≈ 130 µM)
[1]; pH 8.1, thermodynamic from solid, Water, final measured pH 8.10
  solubility: 12 µg/mL (≈ 27.4 µM)
[1]; phosphate buffer pH 2.5, aqueous buffer, thermodynamic from solid, pH 2.5 Phosphate buffer, final measured pH 3.44
  solubility: 4330 µg/mL (≈ 9870 µM)
[1]; phosphate buffer pH 3, pH 4.2, aqueous buffer, thermodynamic from solid, pH 3 Phosphae buffer, final measured pH 4.20
  solubility: 1250 µg/mL (≈ 2850 µM)
[1]; phosphate buffer pH 6.8, aqueous buffer, thermodynamic from solid, pH 6.8 Phosphate buffer, final measured pH 6.88
  solubility: 7 µg/mL (≈ 16 µM)
[1]; phosphate buffer pH 8.0, pH 8.1, aqueous buffer, thermodynamic from solid, pH 8.0 Phosphate buffer, final measured pH 8.10
  solubility: 5 µg/mL (≈ 11.4 µM)
[1]; simulated gastric fluid, thermodynamic from solid, SGF with pepsin, final measured pH 1.75
  solubility: > 20000 µg/mL
[1]; simulated gastric fluid, thermodynamic from solid, pH 1 (0.1N HCl), final measured pH 1.48
  solubility: > 20000 µg/mL
[1]; simulated gastric fluid, thermodynamic from solid, pH 2 (0.01N HCl), final measured pH 3.55
  solubility: 3860 µg/mL (≈ 8800 µM)
[1]; thermodynamic from solid, FaSSIF, final measured pH 6.48
  solubility: 146 µg/mL (≈ 333 µM)
[1]; thermodynamic from solid, FeSSIF, final measured pH 5.17
  solubility: 1020 µg/mL (≈ 2320 µM)
[2]; FaSSIF-v2, thermodynamic from solid, FaSSIF (pH 6.5), 2 hr, final pH 6.5
  solubility at 2 h: 63 µg/mL (≈ 144 µM)
[2]; FaSSIF-v2, thermodynamic from solid, FaSSIF (pH 6.5), 24 hr, final pH 6.6
  solubility at 24 h: 63 µg/mL (≈ 144 µM)
[2]; FaSSIF-v2 and FeSSIF-v2, 37° C., 2 hr and 24 hr
  Form change after solubility evaluation (XRPD patterns): no form change was observed
[2]; FeSSIF-v2, thermodynamic from solid, FeSSIF (pH 5.8), 2 hr, final pH 5.9
  solubility at 2 h: 1000 µg/mL (≈ 2280 µM)
[2]; FeSSIF-v2, thermodynamic from solid, FeSSIF (pH 5.8), 24 hr, final pH 6.0
  solubility at 24 h: 1100 µg/mL (≈ 2510 µM)
[2]; FaSSIF (pH 6.5), 2 hr
  Final Form: Form A
[2]; FaSSIF (pH 6.5), 24 hr
  Final Form: Form A
[2]; FeSSIF (pH 5.8), 2 hr
  Final Form: Form A
[2]; FeSSIF (pH 5.8), 24 hr
  Final Form: Form A
[3]; 2 weeks, 25° C./60% RH
  API (RRT 1.00): 99.84 % Area
  Assay vs. 5° C. control: 101.2%
  Crystal form: Form A
  HPLC Purity: 99.84 area %
  Imp.1 (RRT 0.81): 0.07 % Area
  Imp.2 (RRT 1.04): — (—: <0.05.)
  Imp.3 (RRT 1.74): 0.09 % Area
[3]; 2 weeks, 40° C./75% RH
  API (RRT 1.00): 99.78 % Area
  Assay vs. 5° C. control: 98.1%
  Crystal form: Form A
  HPLC Purity: 99.78 area %
  Imp.1 (RRT 0.81): 0.08 % Area
  Imp.2 (RRT 1.04): 0.07 % Area
  Imp.3 (RRT 1.74): 0.07 % Area
[3]; 3 months, 25° C./60% RH
  API (RRT 1.00): 99.86 % Area
  Assay vs. 5° C. control: 97.3%
  Chiral Purity: 100
  Crystal form: Form A
  HPLC Purity: 99.86 area %
  Imp.1 (RRT 0.81): 0.09 % Area
  Imp.3 (RRT 1.74): 0.05 % Area
[3]; 3 months, 40° C./75% RH
  API (RRT 1.00): 99.86 % Area
  Assay vs. 5° C. control: 96.9%
  Chiral Purity: 100
  Crystal form: Form A
  HPLC Purity: 99.86 area %
  Imp.1 (RRT 0.81): 0.09 % Area
  Imp.3 (RRT 1.74): 0.05 % Area
[3]; 4 weeks, 25° C./60% RH
  API (RRT 1.00): 99.86 % Area
  Assay vs. 5° C. control: 101.4%
  Crystal form: Form A
  HPLC Purity: 99.86 area %
  Imp.1 (RRT 0.81): 0.07 % Area
  Imp.2 (RRT 1.04): — (—: <0.05.)
  Imp.3 (RRT 1.74): 0.07 % Area
[3]; 4 weeks, 40° C./75% RH
  API (RRT 1.00): 99.86 % Area
  Assay vs. 5° C. control: 101.3%
  Crystal form: Form A
  HPLC Purity: 99.86 area %
  Imp.1 (RRT 0.81): 0.07 % Area
  Imp.2 (RRT 1.04): — (—: <0.05.)
  Imp.3 (RRT 1.74): 0.07 % Area
[3]; 6 weeks, 25° C./60% RH
  API (RRT 1.00): 99.86 % Area
  Assay vs. 5° C. control: 99.7%
  Crystal form: Form A
  HPLC Purity: 99.86 area %
  Imp.1 (RRT 0.81): 0.07 % Area
  Imp.2 (RRT 1.04): — (—: <0.05.)
  Imp.3 (RRT 1.74): 0.07 % Area
[3]; 6 weeks, 40° C./75% RH
  API (RRT 1.00): 99.86 % Area
  Assay vs. 5° C. control: 99.2%
  Crystal form: Form A
  HPLC Purity: 99.86 area %
  Imp.1 (RRT 0.81): 0.07 % Area
  Imp.2 (RRT 1.04): — (—: <0.05.)
  Imp.3 (RRT 1.74): 0.07 % Area
[3]; 25° C./60% RH and 40° C./75% RH for 3 months
  Physical and chemical stability under accelerated conditions: good physical and chemical stability
[3]; Initial
  API (RRT 1.00): 99.86 % Area
  Crystal form: Form A
  HPLC Purity: 99.86 area %
  Imp.1 (RRT 0.81): 0.09 % Area
  Imp.2 (RRT 1.04): — (—: <0.05.)
  Imp.3 (RRT 1.74): 0.05 % Area
[3]; Initial, starting material after stored at −20° C. for about 3 months
  Chiral Purity: 100*
[3]; after 3 months at both conditions (25° C./60% RH and 40° C./75% RH)
  Form change or HPLC purity decrease: no significant form change or HPLC purity decrease was observed
[4]; 25° C., between 0 and 95% RH
  Form change after the DVS test (XRPD comparison): no form change was observed
[4]; 25° C./80% RH
  Water uptake (DVS): 0.05%
[5]
  Thermodynamic stability relationship among forms A to E: thermodynamically the most stable form
[6]; organic solvent or mixture, Approximate solubility, 1,4-dioxane, RT
  solubility: > 22 mg/mL
[6]; organic solvent or mixture, Approximate solubility, 2-MeTHF, RT
  solubility: > 23 mg/mL
[6]; organic solvent or mixture, Approximate solubility, ACN, RT
  solubility: > 24 mg/mL
[6]; organic solvent or mixture, Approximate solubility, Acetone, RT
  solubility: > 17 mg/mL
[6]; organic solvent or mixture, Approximate solubility, Anisole, RT
  solubility: > 20 mg/mL
[6]; organic solvent or mixture, Approximate solubility, CHCl3, RT
  solubility: > 19 mg/mL
[6]; organic solvent or mixture, Approximate solubility, DCM, RT
  solubility: > 19 mg/mL
[6]; organic solvent or mixture, Approximate solubility, DMSO, RT
  solubility: > 20 mg/mL
[6]; organic solvent or mixture, Approximate solubility, EtOAc, RT
  solubility: > 26 mg/mL
[6]; organic solvent or mixture, Approximate solubility, EtOH, RT
  solubility: > 17 mg/mL
[6]; organic solvent or mixture, Approximate solubility, IPA, RT
  solubility: > 24 mg/mL
[6]; organic solvent or mixture, Approximate solubility, IPAC, RT
  solubility: > 21 mg/mL
[6]; organic solvent or mixture, Approximate solubility, MIBK, RT
  solubility: > 24 mg/mL
[6]; organic solvent or mixture, Approximate solubility, MTBE, RT
  solubility: 7.7 to 11.5 mg/mL (≈ 17600 to 26200 µM)
[6]; organic solvent or mixture, Approximate solubility, MeOH, RT
  solubility: > 23 mg/mL
[6]; organic solvent or mixture, Approximate solubility, NMP, RT
  solubility: > 21 mg/mL
[6]; organic solvent or mixture, Approximate solubility, THF, RT
  solubility: > 26 mg/mL
[6]; organic solvent or mixture, Approximate solubility, n-heptane, RT
  solubility: < 0.9 mg/mL
[6]; organic solvent or mixture, Approximate solubility, toluene, RT
  solubility: 4.5 to 6 mg/mL (≈ 10300 to 13700 µM)
[6]; water, Approximate solubility, H2O, RT
  solubility: > 1 mg/mL
